According to patent publication US4607046A, “4-(1-imidazolylmethyl)cinnamic acid hydrochloride monohydrate and pharmaceutical compositions” (Kissei Pharmaceutical Co., Ltd., priority 1981, dated 1986):
Counter-ions that a name gives are not always drawn.

Key:
[1] = Stability under high or low humidity condition; type: physicochemical; details: below about 50° C.
[2] = Acute toxicity, oral administration to a rat (LD50); details: in vivo
Procedure: The LD50 value of this compound is in oral administration to a rat is 6000 mg/kg or more.

Q: Which results are given for `O=C(O)C=Cc1ccc(Cn2ccnc2)cc1` [4-(1-imidazolylmethyl)cinnamic acid hydrochloride monohydrate]?
A: stability [1]: stable; LD50 [2]: ≥ 6000 mg/kg
